Experimental data reported in ChEMBL document CHEMBL5244275, “Geminal Diheteroatomic Motifs: Some Applications of Acetals, Ketals, and Their Sulfur and Nitrogen Homologues in Medicinal Chemistry and Drug Design” (J Med Chem, 2021).
In brackets after ≈: the same amount, converted by molar mass.

Tests used:
[1] = system: Human immunodeficiency virus 1; assay: Antiviral activity against HIV-1 RF; type: functional, organism-based; settings: Human immunodeficiency virus 1, RF
[2] = system: Human immunodeficiency virus 1; assay: microbe, parasite or virus in culture; settings: Human immunodeficiency virus 1, LAV
[3] = Dissociation constant, pKa of the compound; type: physicochemical
[4] = Inhibition of Calcium channel (unknown origin); parameters: species or system Homo sapiens
Cavia porcellus = assay: Antiinflammatory activity in po dosed substance P-induced guinea pig model of dermal inflammation; type: functional; settings: read-out: ID50 (the source's name)
MAP kinase p38 = MAP kinase p38 (Homo sapiens, UniProt O15264+Q15759+Q16539+P53778); assay: Inhibition of p38-MAPK (unknown origin); type: protein assay
[5] = Oral bioavailability in rat; type: ADME, organism-based; settings: in vivo
Mus musculus [6] = assay: Antiinflammatory activity in LPS-induced Balb/c mouse model assessed as reduction in TNF-alpha release administered orally for 30 mins followed by LPS-stimulation and measured after 90 mins by ELISA analysis; type: functional; settings: 2 h, route po, time 120 min
[7] = Solubility of the compound at pH 7.4; type: physicochemical; settings: buffer
[8] = Drug degradation in citrate buffer at pH 4 measured after 18 hrs; type: physicochemical; settings: read-out: Drug degradation
[9] = Drug degradation in citrate buffer at pH 8.5 measured after 18 hrs; type: physicochemical; settings: read-out: Drug degradation
[10] = Oral bioavailability in human; type: ADME, organism-based; settings: in vivo
CCRF-CEM = assay: Anticancer activity against human CCRF-CEM cells; type: functional, cell-based
[11] = Drug concentration in rat plasma at 10 mg/kg, po measured after 90 mins; type: ADME, organism-based
[12] = Inhibition of Acinetobacter baumannii beta-lactamase OXA-235
[13] = Inhibition of Acinetobacter baumannii beta-lactamase OXA-143
[14] = Inhibition of Acinetobacter baumannii beta-lactamase OXA-24
[15] = Stability of the compound at pH 2 assessed as half-life; type: physicochemical; settings: buffer
Plasmodium falciparum = assay: Antiplasmodial activity against Plasmodium falciparum W2 assessed as inhibition of parasite growth; type: functional, organism-based
[16] = Half-life in iv dosed rat plasma; type: ADME, organism-based
[17] = Oral bioavailability in mouse; type: ADME, organism-based; settings: in vivo
[18] = Stability of the compound in 0.01 N HCL at pH 2.0 assessed as half-life; type: physicochemical
[19] = Half-life in po dosed rat; type: ADME, organism-based; settings: in vivo
[20] = Antiplasmodial activity against Plasmodium berghei NK 173 infected in ICR (CD-1) mouse assessed as inhibition of parasite growth administered intraperitoneally for four days; settings: NK 173, 96 h
Candida albicans [21] = assay: Antifungal activity against Candida albicans GS; type: functional, organism-based
Candida albicans [22] = assay: Fungicidal activity against Candida albicans; type: functional
[23] = Clearance in Chimpanzee at 0.5 mg/kg, iv bolus injection; type: ADME, organism-based, Pan troglodytes; settings: in vivo
[24] = Clearance in Chimpanzee at 0.5 mg/kg administered as iv infusion; type: ADME, organism-based, Pan troglodytes; settings: in vivo
[25] = Stability of the compound at pH 7.4 aqueous phosphate buffer assessed as half-life; type: physicochemical
[26] = Stability of the compound assessed as compound hydrolysis by measuring rate constant; type: physicochemical
[27] = Drug recovery in mouse urine; type: ADME; settings: pooled result: one value given for 8 cell lines, strains, targets or settings, read-out: Drug recovery
Mus musculus [28] = assay: Anticonvulsant activity in MES induced mouse model of seizure at 10 mg/kg, po measured after 4 hrs relative to control; type: functional
[29] = Drug excretion in human urine assessed as unchanged drug excreted; type: ADME; settings: read-out: Drug excretion
[30] = Half-life in human plasma; type: ADME
[31] = biological target: Hepatitis C virus serine protease, NS3/NS4A (Hepatitis C virus, UniProt A3EZI9+D2K2A8); assay: Inhibition of Hepatitis C virus NS4A-NS3 protease by continuous assay; type: protein-complex assay, Hepacivirus hominis
[32] = Half-life in human; type: ADME
[33] = biological target: Polymerase acidic protein (Influenza A virus (A/Puerto Rico/8/1934(H1N1)), UniProt P03433); assay: Inhibition of Influenza A virus CEN

Chain of Hepatitis C virus serine protease, NS3/NS4A (D2K2A8 whole entry): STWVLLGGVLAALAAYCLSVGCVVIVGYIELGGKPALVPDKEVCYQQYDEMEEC
Chain of Hepatitis C virus serine protease, NS3/NS4A (A3EZI9 whole entry): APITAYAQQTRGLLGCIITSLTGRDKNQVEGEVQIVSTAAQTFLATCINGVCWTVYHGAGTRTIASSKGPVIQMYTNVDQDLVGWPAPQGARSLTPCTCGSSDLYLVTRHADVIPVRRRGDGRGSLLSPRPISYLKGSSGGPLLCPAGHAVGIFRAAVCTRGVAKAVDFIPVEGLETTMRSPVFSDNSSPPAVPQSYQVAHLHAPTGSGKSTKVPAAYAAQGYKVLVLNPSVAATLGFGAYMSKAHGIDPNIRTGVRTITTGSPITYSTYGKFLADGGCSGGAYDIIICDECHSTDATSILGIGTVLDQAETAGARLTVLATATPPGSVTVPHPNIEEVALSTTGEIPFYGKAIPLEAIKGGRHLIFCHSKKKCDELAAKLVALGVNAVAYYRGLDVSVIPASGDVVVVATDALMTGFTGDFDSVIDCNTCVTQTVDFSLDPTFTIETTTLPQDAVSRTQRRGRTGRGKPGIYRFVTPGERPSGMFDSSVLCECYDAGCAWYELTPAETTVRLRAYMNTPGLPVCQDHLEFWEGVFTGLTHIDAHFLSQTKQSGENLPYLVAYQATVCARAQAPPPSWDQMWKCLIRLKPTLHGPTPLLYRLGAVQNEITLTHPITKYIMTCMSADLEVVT

Compound: Nc1ccn([C@@H]2CS[C@H](CO)O2)c(=O)n1 [LAMIVUDINE]
- IC50 [1]: 870 nM
- EC50 [2]: 2000 nM

Compound: O=c1[nH]nc(CN2CCO[C@H](OCc3cc(C(F)(F)F)cc(C(F)(F)F)c3)[C@@H]2c2ccccc2)[nH]1
- pKa [3]: < 3
- IC50 [4]: 12000 nM
- ED50 (Cavia porcellus): 0.009 mg/kg

Compound: Nc1ccn([C@H]2CS[C@@H](CO)O2)c(=O)n1
- IC50 [1]: 1220 nM
- EC50 [2]: 200 nM

Compound: C[C@]1(NC(=O)c2ccccc2)CO[C@H](c2nc(-c3ccncc3)c(-c3ccc(F)cc3)[nH]2)OC1
- IC50 (MAP kinase p38): 44 nM
- bioavailability [5]: 64%
- ED50 (Mus musculus [6]): 10 mg/kg

Compound: Nc1nc2c(ncn2COCCO)c(=O)[nH]1 [ACYCLOVIR]
- solubility [7]: 2500 µg/mL (≈ 11.1 mM)

Compound: COc1ccc(C2=CN(CNC(C)=O)CC2=O)cc1
- pKa [3]: < 6
- degraded at 18 h [8]: < 1%
- degraded at 18 h [9]: 40%

Compound: Nc1nc(Cl)nc2c1ncn2[C@@H]1O[C@H](CO)[C@@H](O)[C@@H]1F [CLOFARABINE]
- bioavailability [10]: 57%
- IC50 (CCRF-CEM): 60 nM

Compound: Cc1cc(C)n(CCC[C@H]2CO[C@@H](c3nc(-c4ccccc4)c(-c4ccccc4)[nH]3)OC2)n1
- concentration at 1.5 h [11]: 1300 nM

Compound: C[C@]1(Cn2ccnn2)[C@H](C(=O)O)N2C(=O)C[C@H]2S1(=O)=O [TAZOBACTAM]
- IC50 [12]: 4880 nM
- IC50 [13]: 5900 nM
- IC50 [14]: 27900 nM

Compound: c1ccc(-c2nc([C@H]3OC[C@@H](CCCCN4CCSCC4)CO3)[nH]c2-c2ccccc2)cc1
- concentration at 1.5 h [11]: 2200 nM

Compound: C[C@H]1[C@@H](O)O[C@@H]2O[C@@]3(C)CC[C@H]4[C@H](C)CC[C@@H]1[C@@]24OO3 [ARTENIMOL]
- half-life [15]: 17 h
- IC50 (Plasmodium falciparum): 0.45 nM
- half-life [16]: 0.383 h
- bioavailability [17]: 1.4%
- half-life [18]: 17 h
- half-life [19]: 0.5 h

Compound: CO[C@@]1(C(F)(F)F)O[C@@H]2O[C@@]3(C)CC[C@H]4[C@H](C)CC[C@@H]([C@H]1C)[C@@]24OO3
- half-life [15]: 660 h
- ED50 [20]: 3.4 µmol/kg

Compound: C[C@]1(NC(=O)N2CCOCC2)CO[C@H](c2nc(-c3ccncc3)c(-c3ccc(F)cc3)[nH]2)OC1
- IC50 (MAP kinase p38): 50 nM
- bioavailability [5]: 50%
- ED50 (Mus musculus [6]): < 10 mg/kg

Compound: CC(=O)NC[C@H]1CN(c2ccc(N3CCOCC3)c(F)c2)C(=O)O1 [LINEZOLID]
- pKa [3]: < 6
- degraded at 18 h [8]: < 1%
- degraded at 18 h [9]: 40%

Compound: CC[C@H](C)C[C@H](C)CCCCCCCCC(=O)N[C@H]1C[C@@H](O)[C@@H](NCCN)NC(=O)[C@@H]2[C@@H](O)CCN2C(=O)[C@H]([C@H](O)CCN)NC(=O)[C@H]([C@H](O)[C@@H](O)c2ccc(O)cc2)NC(=O)[C@@H]2C[C@@H](O)CN2C(=O)[C@H]([C@@H](C)O)NC1=O [CASPOFUNGIN]
- IC50 (Candida albicans [21]): 0.6 nM
- MFC (Candida albicans [22]): 0.125 µg/mL (≈ 0.000114 mM)
- clearance [23]: 0.26 mL/min/kg
- clearance [24]: 0.21 mL/min/kg

Compound: FC1(F)[C@H]2O[C@@H]1[C@H](COCc1ccccc1)[C@@H](COCc1ccccc1)O2
- half-life [25]: > 720 h
- K [26]: 2.4 10^-3/M/s

Compound: Nc1nc(O)c2ncn(COC(CO)CO)c2n1 [GANCICLOVIR]
- solubility [7]: 2000 µg/mL (≈ 7.84 mM)

Compound: CC1(C)O[C@@H]2[C@@H](CC[C@@]3(COS(N)(=O)=O)OC(C)(C)O[C@@H]23)O1
- dose excreted [27]: 89%

Compound: CC1(C)O[C@@H]2[C@@H](CO[C@@]3(COS(N)(=O)=O)OC(C)(C)O[C@@H]23)O1 [TOPIRAMATE]
- Activity (Mus musculus [28]): 80%
- bioavailability [10]: 80%
- dose excreted [29]: 70%
- half-life [30]: 21 h

Compound: CCC[C@H](NC(=O)[C@@H]1[C@H]2O[C@H]3CCCOc4cccc(c4)CC(=O)N[C@@H](C4CCCCC4)CN1C[C@@H]2O3)C(=O)C(=O)NCC(=O)N[C@H](C(=O)O)c1ccccc1
- Ki [31]: 38 nM

Compound: O=C1c2c(O)c(=O)ccn2N([C@@H]2c3ccccc3SCc3c2ccc(F)c3F)[C@@H]2COCCN12 [BALOXAVIR]
- half-life [32]: 79 h
- IC50 [33]: 2.5 nM
